Experiments:
[1] = tested on: VEGF; experiment: inhibition of VEGF expression in human fibroblast; type: cell-based; details: 20 nM, 72 hours
Experimental: (§1) A cell of angiofibroma, a human fibroblast, and HaCat, each of which was isolated from a patient with tuberous sclerosis complex, were used. Isolation of the cell of angiofibroma was carried out by removing angiofibroma from a patient who wished the angiofibroma to be removed and then using the primary culturing method. […] HaCat was purchased from German Cancer Research Center (dkfz). The cells obtained from the respective patients were used with the patients' consent.
(§2) The cell of angiofibroma, the human fibroblast, and HaCat were each cultured with use of a DME culture medium at a temperature of 37° C. in a 5% CO2 environment. During the culture of these cells, sirolimus was added to each of the culture mediums so as to have a final concentration of 0 nM (that is, no sirolimus is added to a culture medium (a control)), 1 nM, 10 nM, or 20 nM. The cells were each incubated again at a temperature of 37° C. in a 5% CO2 environment, and a culture supernatant was collected […] after sirolimus was added. A concentration of VEGF in the collected culture supernatant was measured with use of a kit (Quantikine® Human VEGF manufactured by R&D SYSTEMS®) for detecting VEGF.

[2] = tested on: TYR; experiment: expression level of mRNA of TYR in melanocytes (real-time RT-PCR); type: cell-based
Experimental: (§3) 1.4×10^5 melanocytes were inoculated in wells of 6-well culture plate, and a medium 254 (produced by KURABO […] LTD.; M254500) was added to the wells. Subsequently, the plate was incubated for 24 hours at a temperature of 37° C. in a 5% CO2 environment.
(§4) Sirolimus was added to the respective wells so as to have a final concentration of 0 nM (that is, no sirolimus is added to a culture medium), 1 nmol/L, 10 nmol/L, and 20 nmol/L, respectively. The plates were incubated for 24 hours or 48 hours at a temperature of 37° C. in a 5% CO2 environment.
(§5) From the wells thus incubated, the medium 254 was removed. Then, an operation of adding PBS to the wells and removing the PBS from the wells was carried out three times to wash the melanocytes with the PBS.
(§6) To the wells from which the PBS had been removed, 175 μL of an RNA lysis buffer was added. The RNA lysis buffer is attached to a kit of an SV Total RNA Solution System (manufactured by Promega Corporation; Z3105).
(§7) Melanocytes were peeled off the plate with use of a cell scraper.
(§8) The RNA lysis buffer containing melanocytes was collected into a 1.5 mL Eppendorf tube. Then, RNAs were extracted from the collected buffer.
(§9) Real-time RT-PCR was carried out with use of the RNAs to detect expression of mRNAs of MITF, mRNAs of TYR, mRNAs of TYRP1, and mRNAs of GAPDH. An expression level of the mRNAs of MITF, an expression level of the mRNAs of TYR, and an expression level of the mRNAs of TYRP1 were each calculated as a relative expression level with respect to an expression level of the mRNA of GAPD.
(§10) This experiment was carried out three times to calculate an average value and a standard deviation of relative expression levels of mRNAs of each of MITF, TYR, and TYRP1. Whether or not there was a statistically significant difference between test results obtained with use of the respective external medicines was checked by calculating a p value with use of a Student's t-test having no correspondence. In a case where the p value was less than 0.05, a statistically significant difference was recognized.
(§11) To detect expression of the mRNAs of MITF, TagMan® Gene Expression Assays (produced by Applied biosystems, Inc.; Hs00165156_m1) was used. To detect expression of the mRNAs of TYR, TagMan® Gene Expression Assays (produced by Applied biosystems, Inc.; Hs00165976_m1). To detect expression of the mRNAs of TYRP1, TagMan® Gene Expression Assays (produced by Applied biosystems, Inc.; Hs00167051_m1) was used. To detect expression of the mRNAs of GAPDH, TagMan® Gene Expression Assays (produced by Applied biosystems, Inc.; Hs99999905_m1) was used.

[3] = tested on: VEGF; experiment: inhibition of VEGF expression in HaCat; type: cell-based; details: 20 nM, 72 hours
Experimental: as §1, §2

[4] = tested on: MITF; experiment: expression level of mRNA of MITF in melanocytes (real-time RT-PCR); type: cell-based
Experimental: as §3, §4, §5, §6, §7, §8, §9, §10, §11

[5] = tested on: TYRP1; experiment: expression level of mRNA of TYRP1 in melanocytes (real-time RT-PCR); type: cell-based
Experimental: as §3, §4, §5, §6, §7, §8, §9, §10, §11

[6] = tested on: VEGF; experiment: inhibition of VEGF expression in cell of angiofibroma; type: cell-based, human
Experimental: as §1, §2

Compound: CO[C@H]1C[C@@H]2CC[C@@H](C)[C@@](O)(O2)C(=O)C(=O)N2CCCC[C@H]2C(=O)O[C@H]([C@H](C)C[C@@H]2CC[C@@H](O)[C@H](OC)C2)CC(=O)[C@H](C)/C=C(\C)[C@@H](O)[C@@H](OC)C(=O)[C@H](C)C[C@H](C)/C=C/C=C/C=C/1C [sirolimus]
- concentration of VEGF decreased to (% of untreated) [1]: about 30%
- rate of decrease in concentration of VEGF (ratio treated/untreated) [1]: 0.336
- concentration of VEGF in culture supernatant ([1]; control 1492.7): 501.3 pg/mL
- relative expression levels of TYR ([2]; 1 nM, 24 hours, untreated 24 h 0.640±0.036): 0.820±0.047
- relative expression levels of TYR ([2]; 1 nM, 48 hours, untreated 48 h 0.771±0.009): 0.760±0.044
- relative expression levels of TYR ([2]; 20 nM, 24 hours, untreated 24 h 0.640±0.036): 0.921±0.029
- relative expression levels of TYR ([2]; 20 nM, 48 hours, untreated 48 h 0.771±0.009): 0.858±0.022
- concentration of VEGF decreased to (% of untreated) [3]: about 40%
- rate of decrease in concentration of VEGF (ratio treated/untreated) [3]: 0.405
- concentration of VEGF in culture supernatant ([3]; control 1849.9): 749.9 pg/mL
- relative expression levels of MITF ([4]; 1 nM, 24 hours, relative to GAPDH, untreated 24 h 100.00±3.37): 152.48±3.47
- relative expression levels of MITF ([4]; 1 nM, 48 hours, untreated 48 h 107.95±1.38): 129.41±3.43
- relative expression levels of MITF ([4]; 20 nM, 24 hours, untreated 24 h 100.00±3.37): 152.18±14.75
- relative expression levels of MITF ([4]; 20 nM, 48 hours, untreated 48 h 107.95±1.38): 141.56±3.52
- relative expression levels of TYRP ([5]; 1 nM, 24 hours, untreated 24 h 1.031±0.027): 1.333±0.055
- relative expression levels of TYRP ([5]; 1 nM, 48 hours, untreated 48 h 1.338±0.029): 1.450±0.028
- relative expression levels of TYRP ([5]; 20 nM, 24 hours, untreated 24 h 1.031±0.027): 1.652±0.031
- relative expression levels of TYRP ([5]; 20 nM, 48 hours, untreated 48 h 1.338±0.029): 1.514±0.124
- concentration of VEGF in culture supernatant ([6]; 1 nM, 48 hours, untreated 260.2857): 113.1428 pg/mL
- concentration of VEGF in culture supernatant ([6]; 10 nM, 48 hours, untreated 260.2857): 92.4285 pg/mL
- concentration of VEGF decreased to (% of untreated) ([6]; 20 nM, 72 hours): about 20%
- rate of decrease in concentration of VEGF (ratio treated/untreated) ([6]; 20 nM, 72 hours): 0.196
- concentration of VEGF in culture supernatant ([6]; 20 nM, 72 hours, control 858.4): 168 pg/mL
